pEC50, pIC50: −log10 of the molar value.
Legend:
[1] = test system: RSV strain A2; test: RSV EC50 HEp-2 cytopathic cell protection assay; type: cell-based; settings: human respiratory syncytial virus, 96 h; HEp-2 cells, RSV strain A2, 4 days, Cell TiterGlo; read-out: RSV EC50 HEp2
[2] = MT4 CC50 cytotoxicity; type: cell-based; settings: human; MT4 cells, 4-5 days, CellTiter Glo
Description: (§1) HEp-2 (1.5×10^3 cells/well) or MT4 (2×10^3 cells/well) cells were plated in 384-well plates and incubated with the appropriate medium containing 3-fold serially diluted compound ranging from 15 nM to 100,000 nM. Cells were cultured for 4-5 days at 37° C. Following the incubation, the cells were allowed to equilibrate to 25° C., and cell viability was determined by adding CellTiter Glo viability reagent. The mixture was incubated for 10 min, and the luminescence signal was quantified using an Envision plate reader. Cell lines were not authenticated and were not tested for mycoplasma as part of routine use in cytotoxicity assays.

[3] = HEp-2 CC50 cytotoxicity; type: cell-based; settings: human; HEp-2 cells, 4-5 days, CellTiter Glo; read-out: HEp2 CC50
Description: as §1

[4] = test system: MERS-CoV; test: microbe, parasite or virus in culture; type: cell-based; settings: Middle East respiratory syndrome-related coronavirus, Vero 76, 72 h, read-out: MERS CoV EC50
[5] = molecular target: RSV RNP complexes (Human respiratory syncytial virus A, UniProt P28887); test: RSV RNP Polymerase IC50 transcription assay; type: biochemical; settings: crude RSV RNP complexes, 90 min at 30° C.
Chain of RSV RNP complexes (P03421 whole entry): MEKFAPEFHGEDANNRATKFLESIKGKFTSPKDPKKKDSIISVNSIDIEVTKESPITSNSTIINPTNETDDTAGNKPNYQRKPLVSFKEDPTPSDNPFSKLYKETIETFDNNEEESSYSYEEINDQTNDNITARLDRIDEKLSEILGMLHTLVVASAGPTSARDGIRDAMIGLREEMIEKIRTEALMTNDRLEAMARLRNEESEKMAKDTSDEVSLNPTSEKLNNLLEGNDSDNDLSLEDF
Chain of RSV RNP complexes (P28887 whole entry): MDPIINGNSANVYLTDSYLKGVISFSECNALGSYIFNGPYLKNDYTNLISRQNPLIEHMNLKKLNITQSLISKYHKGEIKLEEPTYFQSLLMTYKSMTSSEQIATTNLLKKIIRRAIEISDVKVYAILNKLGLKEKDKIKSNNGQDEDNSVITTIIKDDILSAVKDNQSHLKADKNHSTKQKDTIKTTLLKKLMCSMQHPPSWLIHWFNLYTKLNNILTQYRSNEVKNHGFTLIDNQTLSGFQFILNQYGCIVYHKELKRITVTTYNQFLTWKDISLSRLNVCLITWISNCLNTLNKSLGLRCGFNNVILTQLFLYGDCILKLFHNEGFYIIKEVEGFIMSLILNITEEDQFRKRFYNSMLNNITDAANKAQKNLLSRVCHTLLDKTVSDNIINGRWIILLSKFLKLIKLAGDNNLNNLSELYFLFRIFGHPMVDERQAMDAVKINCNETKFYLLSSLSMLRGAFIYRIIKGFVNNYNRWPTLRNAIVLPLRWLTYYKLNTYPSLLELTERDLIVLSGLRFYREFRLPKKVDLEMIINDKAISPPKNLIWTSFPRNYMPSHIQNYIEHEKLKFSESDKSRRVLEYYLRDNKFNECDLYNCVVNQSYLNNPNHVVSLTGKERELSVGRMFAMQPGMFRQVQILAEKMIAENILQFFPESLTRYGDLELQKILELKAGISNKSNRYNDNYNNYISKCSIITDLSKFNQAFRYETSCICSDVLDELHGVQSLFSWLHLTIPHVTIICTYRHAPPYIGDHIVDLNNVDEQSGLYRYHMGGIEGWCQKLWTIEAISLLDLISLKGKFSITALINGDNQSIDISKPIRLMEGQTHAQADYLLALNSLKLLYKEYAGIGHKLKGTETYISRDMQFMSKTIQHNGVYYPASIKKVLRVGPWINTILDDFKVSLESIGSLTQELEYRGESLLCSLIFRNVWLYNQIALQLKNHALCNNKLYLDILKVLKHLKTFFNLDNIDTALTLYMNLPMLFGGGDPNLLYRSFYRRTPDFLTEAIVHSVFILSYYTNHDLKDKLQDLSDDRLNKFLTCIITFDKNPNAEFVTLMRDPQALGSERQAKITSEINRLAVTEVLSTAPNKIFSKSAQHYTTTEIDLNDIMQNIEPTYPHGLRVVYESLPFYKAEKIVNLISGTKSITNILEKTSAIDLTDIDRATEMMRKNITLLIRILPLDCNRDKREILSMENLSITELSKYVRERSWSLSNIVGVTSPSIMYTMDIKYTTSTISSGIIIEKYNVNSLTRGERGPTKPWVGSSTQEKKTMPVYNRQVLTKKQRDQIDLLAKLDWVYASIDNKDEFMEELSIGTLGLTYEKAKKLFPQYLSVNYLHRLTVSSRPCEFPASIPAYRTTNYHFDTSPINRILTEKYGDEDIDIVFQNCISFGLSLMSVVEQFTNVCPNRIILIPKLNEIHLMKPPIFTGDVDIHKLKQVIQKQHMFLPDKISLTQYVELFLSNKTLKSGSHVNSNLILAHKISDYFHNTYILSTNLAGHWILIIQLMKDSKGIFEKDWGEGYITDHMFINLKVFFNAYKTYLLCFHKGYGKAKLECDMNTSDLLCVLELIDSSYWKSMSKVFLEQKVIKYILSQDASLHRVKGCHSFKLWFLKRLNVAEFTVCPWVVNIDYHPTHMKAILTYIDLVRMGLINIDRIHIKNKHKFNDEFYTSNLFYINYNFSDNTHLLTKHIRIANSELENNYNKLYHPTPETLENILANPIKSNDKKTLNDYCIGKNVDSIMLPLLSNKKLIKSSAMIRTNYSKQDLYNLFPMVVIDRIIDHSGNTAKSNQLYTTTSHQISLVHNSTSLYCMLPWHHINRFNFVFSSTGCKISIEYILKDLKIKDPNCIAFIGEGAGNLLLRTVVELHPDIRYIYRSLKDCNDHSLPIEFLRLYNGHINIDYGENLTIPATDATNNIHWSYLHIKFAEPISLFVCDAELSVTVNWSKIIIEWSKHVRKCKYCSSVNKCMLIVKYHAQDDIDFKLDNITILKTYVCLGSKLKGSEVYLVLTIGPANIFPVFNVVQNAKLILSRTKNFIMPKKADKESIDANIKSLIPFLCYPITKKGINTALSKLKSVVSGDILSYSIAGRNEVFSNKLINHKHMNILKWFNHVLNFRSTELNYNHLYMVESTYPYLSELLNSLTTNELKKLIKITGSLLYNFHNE
Description: Transcription reactions contained 25 μg of crude RSV RNP complexes in 30 μL of reaction buffer (50 mM TRIS-acetate [pH 8.0], 120 mM potassium acetate, 5% glycerol, 4.5 mM MgCl2, 3 mM DTT, 2 mM EGTA, 50 μg/mL BSA, 2.5 U RNasin, 20 μM ATP, 100 μM GTP, 100 μM UTP, 100 μM CTP, and 1.5 μCi [α-^32P] ATP [3,000 Ci/mmol]). The radiolabeled nucleotide used in the transcription assay was selected to match the nucleotide analog being evaluated for inhibition of RSV RNP transcription. To determine whether nucleotide analogs inhibited RSV RNP transcription, compounds were added using a 6-step serial dilution in 5-fold increments. After a 90 min incubation at 30° C., the RNP, reactions were stopped with 350 μL of Qiagen RLT lysis buffer, and the RNA was purified using a Qiagen RNeasy 96 kit. Purified RNA was denatured in RNA sample loading buffer at 65° C. for 10 min and run on a 1.2% agarose/MOPS gel containing 2M formaldehyde. The agarose gel was dried, exposed to a Storm phosphorimaging screen, and developed using a Storm phosphorimager.

[6] = molecular target: DENV2 NS5 (Dengue virus type 2, UniProt P14340); test: DENGUE sshRNA Polymerase IC50; type: biochemical; settings: 100 nM DENV2 NS5, sshRNA template, 90 minutes at 30° C.
Description: A 244 nucleotide secondary structureless heteropolymeric RNA (sshRNA) with sequence 5′-(UCAG)20(UCCAAG)14(UCAG)20-3′ (SEQ ID NO: 1) is used as the template with 5′-CUG-3′ primer in the DENV2-NS5 polymerase assay. Six two-fold dilutions of compounds starting from 200 nM and no inhibitor control are plated in 96-well plates. […] Enzyme mix is added to compound dilutions and reactions initiated by the addition of a mixture containing 20 μM of three natural NTP plus 2 μM of analog:base matched competing natural NTP containing 1:100 α-^33P-NTP. After 90 minutes at 30° C., 5 μL of the reaction mixtures are spotted on DE81 anion exchange paper. Filter papers are washed three times with Na2HPO4 (125 mM, pH 9) for 5 minutes, rinsed with water and ethanol, then air-dried and exposed to phosphorimager. Synthesized RNA is quantified using Typhoon Trio Imager and Image Quant TL Software and reaction rates are calculated by linear regression using GraphPad Prism 5.0. IC50 values are calculated in Prism by non-linear regression analysis using the dose-response (variable slope) equation (four-parameter logistic equation): Y=Bottom+(Top−Bottom)/(1+10^((LogIC50−X)*HillSlope)).

[7] = molecular target: POLRMT (Homo sapiens, UniProt O00411); test: MTRNAP SNI single nucleotide incorporation; type: biochemical; settings: 376 nM POLRMT, 500 μM NTP analog
Chain of POLRMT (O00411 42-1230): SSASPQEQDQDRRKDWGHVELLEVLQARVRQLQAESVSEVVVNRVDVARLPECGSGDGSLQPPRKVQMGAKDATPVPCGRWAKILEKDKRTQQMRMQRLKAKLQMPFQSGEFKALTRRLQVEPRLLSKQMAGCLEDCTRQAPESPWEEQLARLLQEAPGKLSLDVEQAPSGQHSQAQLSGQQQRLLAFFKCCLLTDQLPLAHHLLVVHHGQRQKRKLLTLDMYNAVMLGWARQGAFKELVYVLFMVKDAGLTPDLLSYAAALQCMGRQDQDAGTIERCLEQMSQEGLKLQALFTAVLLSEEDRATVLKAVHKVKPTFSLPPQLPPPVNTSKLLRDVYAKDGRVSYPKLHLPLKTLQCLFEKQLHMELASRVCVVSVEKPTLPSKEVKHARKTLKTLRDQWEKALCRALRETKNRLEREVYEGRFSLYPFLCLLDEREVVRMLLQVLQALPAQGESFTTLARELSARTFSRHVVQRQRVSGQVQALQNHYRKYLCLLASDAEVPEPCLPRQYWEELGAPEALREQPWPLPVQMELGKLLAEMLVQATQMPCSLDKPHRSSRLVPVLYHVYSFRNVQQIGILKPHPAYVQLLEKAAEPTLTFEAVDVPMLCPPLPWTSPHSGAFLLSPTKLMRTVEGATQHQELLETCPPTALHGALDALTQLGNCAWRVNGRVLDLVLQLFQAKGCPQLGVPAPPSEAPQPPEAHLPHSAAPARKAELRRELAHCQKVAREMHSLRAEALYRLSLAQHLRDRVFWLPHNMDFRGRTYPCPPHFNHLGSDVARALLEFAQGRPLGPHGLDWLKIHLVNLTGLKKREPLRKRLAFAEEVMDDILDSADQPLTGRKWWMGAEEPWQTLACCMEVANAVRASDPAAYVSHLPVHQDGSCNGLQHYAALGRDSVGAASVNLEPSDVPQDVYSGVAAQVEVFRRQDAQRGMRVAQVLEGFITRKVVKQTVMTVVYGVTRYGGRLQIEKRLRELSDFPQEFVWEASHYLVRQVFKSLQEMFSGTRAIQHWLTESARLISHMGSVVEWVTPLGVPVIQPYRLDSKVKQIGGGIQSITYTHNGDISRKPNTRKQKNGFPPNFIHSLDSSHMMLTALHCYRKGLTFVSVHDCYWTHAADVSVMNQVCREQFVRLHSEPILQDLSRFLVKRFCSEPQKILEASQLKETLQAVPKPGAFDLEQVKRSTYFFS
Description: A mixture of MTCN buffer (50 mM MES, 25 mM Tris-HCl, 25 mM CAPS, and 50 mM NaCl, pH 7.5), 200 nM 5′-32P-R12/D18, 10 mM MgCl2, 1 mM DTT, and 376 nM POLRMT was preincubated at 30° C. for 1 min. The reaction was started by addition of 500 μM (final) natural NTP or NTP analogs. At selected time points, the reaction mixture was removed and quenched with gel loading buffer containing 100 mM EDTA, 80% formamide, and bromophenol blue, and heated at 65° C. for 5 min. The samples were run on a 20% polyacrylamide gel (8 M urea), and the product formation was quantified using Typhoon Trio Imager and Image Quant TL Software (GE Healthcare, Piscataway, NJ). The rate of single nucleotide incorporation by mt RNA pol was calculated by fitting the product formation using the single exponential equation: [R13]=A(1−e−kt), where [R13] represents the amount (in nM) of the elongated product formed, t represents the reaction time, k represents the observed rate, and A represents the amplitude of the exponential.

[8] = A549-hACE2 CC50 cytotoxicity; type: cell-based; settings: human, A549-hACE2 cells, CellTiter-Glo
Description: The cytotoxicity of compounds was determined in A549-hACE2 cells in the following manner. Compounds (200 nL) were spotted onto 384-well Grenier plates prior to seeding 5000 A549-hACE2 cells/well in a volume of 40 μL culture medium. The plates were incubated at 37° C. for 48 hours with 5% CO2. On day 2, 40 μL of CellTiter-Glo (Promega) was added and mixed 5 times. Plates were read for luminescence on an Envision (PerkinElmer) and the CC50 values were calculated using a nonlinear regression model (four parameters).

[9] = test system: SARS-CoV2-Nluc viruses; test: microbe, parasite or virus in culture; type: cell-based, SARS-CoV-2; settings: Severe acute respiratory syndrome coronavirus 2, A549, 48 h
[10] = test system: Dengue serotype 2 New Guinea C (NGC) strain; test: DENV EC50 Huh7 qPCR assay; type: cell-based; settings: Dengue virus, Huh-7, Huh7 cells, DENV2 NGC, MOI 0.1, 48 hours
Description: Huh7 (Human hepatocarcinoma 7) cells were maintained in 10% FCS-containing DMEM complete media. On the day of the assay, cells were trypsinized (0.1% Trypsin-EDTA), washed and infected for 2 hours in serum-free DMEM with Dengue serotype 2 New Guinea C (NGC) strain at MOI=0.1 with gentle agitation at 37° C. After 2 hours, cells were washed with serum-free media and suspended in 10% FCS-containing DMEM (Gibco, supplemented with sodium pyruvate, NEAA, Penicillin-Streptomycin). 10^5 cells were plated in triplicate in 96-well plates with compounds dispensed at graded doses (Hewlett-Packard D300 Digital Dispenser). All wells were normalized to 0.25% DMSO. At 48 hours, cells were washed with 1×PBS and all supernatants removed. Total RNA was extracted using RNEasy 96 plates (Qiagen) and used to generate first-strand cDNA using XLT cDNA 5× Supermix (QuantaBio). cDNA was used as a template in a Taqman qPCR duplex reaction specific to DENV2 viral and GAPDH gene expression. EC50 values were determined using Prism Graphpad software, with normalization to a positive control and no compound negative control wells.

[11] = Huh7 CC50 cytotoxicity; type: cell-based; settings: human, Huh7 cells, CellTiter-Glo
Description: Human hepatocarcinoma 7 (Huh7) cells were maintained in 10% FCS-containing complete DMEM. On day of assay, cells were trypsinized with 0.1% Trypsin-EDTA, washed and cultured in triplicate at 1-2×10^4 cells/well in 96-well plates with compounds dispensed at graded doses (Hewlett-Packard D300 Digital Dispenser). All wells were normalized to 0.25% DMSO. After 48 h, CellTiter-Gio (Promega) was added and incubated for 10 minutes at room temp before reading on a luminometer. % viability curves were calculated against no compound and no cell control wells. CC50 values (compound concentration for reducing 50% of luminescence signal as a measure of cell viability) were determined using Prism Graphpad software.

[12] = test system: Zika virus strain MR766; test: Zika EC50 Huh7 XTT assay; settings: Huh-7, read-out: Zika EC50 Huh7

SMILES | pEC50 [1] | CC50 [2] | CC50 [3] | pEC50 [4] | pIC50 [5] | pIC50 [6] | MTRNAP SNI (% incorporation) [7] | CC50 at 48 h [8] | pEC50 [9] | pEC50 [10] | CC50 at 48 h [11] | pEC50 [12]
N#C[C@@]1(c2csc3c(N)ncnc23)O[C@H](CO)[C@@H](O)[C@H]1O [Compound C1, (2R,3R,4S,5R)-2-(4-aminothieno[3,2-d]pyrimidin-7-yl)-3,4-dihydroxy-5-(hydroxymethyl)tetrahydrofuran-2-carbonitrile] | 5.51 | > 114 µM | > 100 µM | 5.66 | – | – | – | – | – | – | – | –
N#C[C@@]1(c2csc3c(N)ncnc23)O[C@H](COP(=O)(O)OP(=O)(O)OP(=O)(O)O)[C@@H](O)[C@H]1O [Compound C2, ((2R,3S,4R,5R)-5-(4-aminothieno[3,2-d]pyrimidin-7-yl)-5-cyano-3,4-dihydroxytetrahydrofuran-2-yl)methyl tetrahydrogen triphosphate] | – | – | – | – | 5.54 | 5.05 | 0.61 % incorporation | – | – | – | – | –
CCC(CC)COC(=O)[C@H](C)NP(=O)(OC[C@H]1O[C@@](C#N)(c2csc3c(N)ncnc23)[C@H](O)[C@@H]1O)Oc1ccccc1 (stereo partly drawn) [Compound C3, 2-ethylbutyl ((((2R,3S,4R,5R)-5-(4-aminothieno[3,2-d]pyrimidin-7-yl)-5-cyano-3,4-dihydroxytetrahydrofuran-2-yl)methoxy)(phenoxy)phosphoryl)-L-alaninate] | 6.36 | 19 µM | > 37.2 µM | – | – | – | – | > 50 µM | 5.93 | 5.73 | > 25 µM | 5.16
CC(C)(C)C(=O)SCCOP(=O)(OCCSC(=O)C(C)(C)C)OC[C@H]1O[C@@](C#N)(c2csc3c(N)ncnc23)[C@H](O)[C@@H]1O [Compound C4] | 5.57 | 11.1 µM | > 50 µM | – | – | – | – | – | – | – | – | –
